Laboratory results reported in PMC13077603, “Fluorine‐18‐Labeled Nucleotide Analogs Targeting Ecto‐5'‐Nucleotidase (CD73) for Positron Emission Tomography Imaging of Solid Tumors” (Angewandte Chemie (International Ed. in English), 2026).

Assays:
[1] = molecular target: T1, Soluble recombinant human CD73 (Homo sapiens, UniProt P21589); experiment: CD73 enzyme inhibition assay, soluble recombinant human CD73; type: biochemical; settings: soluble recombinant human CD73, Km 17 µM, substrate AMP (5 µM)
T1 sequence (P21589 27-549 limits assumed): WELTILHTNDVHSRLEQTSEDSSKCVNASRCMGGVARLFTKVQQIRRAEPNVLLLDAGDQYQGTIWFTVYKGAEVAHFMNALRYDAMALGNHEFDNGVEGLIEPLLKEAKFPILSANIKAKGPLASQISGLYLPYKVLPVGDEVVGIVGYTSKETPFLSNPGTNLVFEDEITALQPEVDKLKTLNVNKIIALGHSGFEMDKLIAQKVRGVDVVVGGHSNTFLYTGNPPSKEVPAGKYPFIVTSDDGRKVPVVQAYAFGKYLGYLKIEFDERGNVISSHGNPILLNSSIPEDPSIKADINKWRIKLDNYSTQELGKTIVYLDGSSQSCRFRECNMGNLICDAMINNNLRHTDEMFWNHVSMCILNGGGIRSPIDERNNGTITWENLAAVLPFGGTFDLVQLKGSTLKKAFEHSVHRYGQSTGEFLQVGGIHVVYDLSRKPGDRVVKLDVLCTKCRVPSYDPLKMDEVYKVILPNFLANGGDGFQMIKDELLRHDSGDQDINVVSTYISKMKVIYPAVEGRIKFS
Procedure: Both compounds were evaluated for metabolic stability in mouse liver microsomes (MLM) and plasma protein binding (PPB) (Table 1).
The CD73 enzyme inhibition assay of recombinant soluble CD73, membrane-bound human CD73, soluble rat CD73 and mouse CD73 was performed as previously described.^[16,35^]

[2] = molecular target: Human serum albumin (HSA) (Homo sapiens, UniProt P02768); experiment: Plasma protein binding (human serum albumin binding); type: in vitro ADME; settings: human serum albumin (HSA), read-out: Plasma protein binding (PPB) (converted)
Human serum albumin (HSA), sequence (P02768 25-609): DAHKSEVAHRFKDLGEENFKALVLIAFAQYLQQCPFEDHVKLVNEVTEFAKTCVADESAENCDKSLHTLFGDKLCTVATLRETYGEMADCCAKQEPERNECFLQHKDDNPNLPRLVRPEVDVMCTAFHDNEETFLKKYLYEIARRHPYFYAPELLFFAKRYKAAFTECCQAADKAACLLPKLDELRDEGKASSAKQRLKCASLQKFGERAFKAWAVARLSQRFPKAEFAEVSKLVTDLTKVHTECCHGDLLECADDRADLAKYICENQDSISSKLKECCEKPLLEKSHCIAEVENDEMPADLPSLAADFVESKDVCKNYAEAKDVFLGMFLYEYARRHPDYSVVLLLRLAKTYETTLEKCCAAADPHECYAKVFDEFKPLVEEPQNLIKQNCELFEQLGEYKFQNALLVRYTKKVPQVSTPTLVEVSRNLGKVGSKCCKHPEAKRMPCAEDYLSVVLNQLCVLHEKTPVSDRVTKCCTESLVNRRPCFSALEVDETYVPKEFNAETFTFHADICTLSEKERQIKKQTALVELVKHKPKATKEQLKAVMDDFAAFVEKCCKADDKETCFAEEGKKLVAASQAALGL
Procedure: Human serum albumin (HSA) binding.
Plasma protein binding was determined following previously published procedure.^[38^]

[3] = logD7.4 determination of radiotracers (PBS/octan-1-ol); type: physicochemical; settings: octan-1-ol/PBS; PBS pH 7.4 / octan-1-ol, radiotracer
Procedure: The logD 7.4 values of both radiotracers were determined using a previously described method based on their distribution between phosphate‐buffered saline (PBS) and octan‐1‐ol.
Triazole radiotracers (~400 kBq) in PBS buffer (10 µL, pH 7.4) were added to PBS buffer (590 µL, pH 7.4) and octan-1-ol (600 µL). The two-layer mixture was shaken for 3 min on a vortex mixer at r.t. and centrifuged (200 g) for 5 min. The main part of the octanol layer (400 µL) was carefully collected and transferred to a new tube containing PBS buffer (400 µL, pH 7.4). The two-layer mixture was shaken again for 10 min and centrifuged for 5 min (200 g). Three samples were prepared, and two aliquots (á 100 µL) of both layers were measured in a gamma-counter 2480 Wizard2 (Perkin-Elmer, Waltham, USA). The partition coefficient was determined by dividing cpm (octanol) by cpm (PBS) and indicated as logD7.4 (exp.).

[4] = molecular target: T2, CD73/AMPase activity in human breast tumor tissues (Homo sapiens, UniProt P21589); experiment: In situ enzyme histochemistry of AMPase activity in breast tumor cryosections; type: biochemical; settings: 10–50 nM inhibitor, 400 µM AMP, tissue cryosections
T2 construct: cryosections of breast tumor samples as well as sentinel lymph node samples were investigated; from tissue; host or cells: primary breast tumors and sentinel lymph nodes of two patients, 6 µm cryosections
T2 sequence (P21589 27-574): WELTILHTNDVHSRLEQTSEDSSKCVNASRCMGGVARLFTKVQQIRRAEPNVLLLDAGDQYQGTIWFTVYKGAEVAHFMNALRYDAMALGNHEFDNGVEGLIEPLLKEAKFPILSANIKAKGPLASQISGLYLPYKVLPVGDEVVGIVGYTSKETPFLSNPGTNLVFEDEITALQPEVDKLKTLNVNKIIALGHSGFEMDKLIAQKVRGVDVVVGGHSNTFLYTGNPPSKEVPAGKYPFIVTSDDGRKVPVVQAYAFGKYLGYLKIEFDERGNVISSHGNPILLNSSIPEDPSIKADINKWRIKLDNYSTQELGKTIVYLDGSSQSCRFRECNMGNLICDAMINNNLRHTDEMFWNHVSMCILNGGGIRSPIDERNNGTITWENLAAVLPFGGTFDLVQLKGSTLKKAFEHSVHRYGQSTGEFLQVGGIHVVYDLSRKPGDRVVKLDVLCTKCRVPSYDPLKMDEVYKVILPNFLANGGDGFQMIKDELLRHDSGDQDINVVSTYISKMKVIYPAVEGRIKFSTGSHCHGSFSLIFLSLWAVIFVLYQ
Procedure: Subsequent analysis of CD73‐mediated AMPase activities was performed by incubating tissue cryosections with AMP and CD73 inhibitors at different concentrations. Figure 2 depicts representative images of AMP‐specific staining in breast tumors from patient X (panel A) and patient Y (panel B), determined in the absence (control) and in the presence of 10 nM of the potent CD73 inhibitor 1.
FIGURE 3 Effects of CD73 inhibitors on AMPase activity in human breast tumor tissues. The effects of CD73 inhibitors on AMPase activity was determined in situ by incubating primary breast tumor samples from patient X (A) and patient Y (B) with 400 µM AMP and 1.5 mM Pb(NO3)2 in the absence (control) and the presence of the indicated concentrations of CD73 inhibitor. (C). Mean pixel intensities of brown staining due to the hydrolysis of AMP leading to Pb3(PO4)2 precipitation were quantified in the selected regions and expressed as arbitrary units (AU) (mean ± SEM; n = 2). Scale bars: 2 mm (A, B), and 500 µm (A, right insets).
For the localization of AMPase activities in human tumors, the lead nitrate-based enzyme histochemistry was employed. […] AMPase activity was determined by measuring AMP-specific brown staining intensities from the images using QuPath v.0.3.0 software. […] The average DAB intensity levels were measured as described earlier.^[39^] […]

Q: With `Cn1c(=O)n([C@@H]2O[C@H](COP(=O)(O)CP(=O)(O)O)[C@@H](O)[C@H]2O)cc/c1=N/OCc1ccc(-c2cn(CCF)nn2)cc1` [compound 2, [((2R,3S,4R,5R)-5-{4-[({4-[1-(2-Fluoroethyl)-1H-1,2,3-triazol-4-yl]benzyl}oxy)-imino]-3-methyl-2-oxo-3,4-dihydropyrimidin-1(2H)-yl}-3,4-dihydroxytetrahydro-furan-2-yl)methoxy]-(phosphonomethyl)phosphonic acid] as the compound, how does the Ki [1] read?
A: 0.664 nM

Q: And the fraction unbound [2]?
A: 0.34

Q: And the logD [3]?
A: 0.74 ± 0.3

Q: And the “Reduction of CD73/AMPase activity in the breast TME” value [4]?
A: 60%–70
